Key:
CaPan1 = test: Cell proliferation assay (CellTiter-Glo); type: cell-based; details: Homo sapiens, CAPAN-1; Pancreas; 72 hours, 0.5% fetal bovine serum; read-out: antiproliferative activity IC50, CaPan1
How it was run: (§1)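 Luminescent ATP quantitation after 30 minutes of lysis served as the growth-inhibition read-out. Before this, cells (5,000 to 10,000 per well) were incubated for 72 hours with varying compound concentrations under low-serum conditions (0.5% fetal bovine serum).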

A549 = test: Cell proliferation assay (CellTiter-Glo); type: cell-based; details: Homo sapiens, NSCLC, 72 hours, 0.5% fetal bovine serum, read-out: antiproliferative activity IC50, A549
How it was run: as §1

T-84 = test: Cell proliferation assay (CellTiter-Glo); type: cell-based; details: Homo sapiens, T84; Colon; 72 hours, 0.5% fetal bovine serum; read-out: antiproliferative activity IC50, T-84
How it was run: as §1

H292 = test: Cell proliferation assay (CellTiter-Glo); type: cell-based; details: Homo sapiens, NCI-H292; NSCLC; 72 hours, 0.5% fetal bovine serum; read-out: antiproliferative activity IC50, H292
How it was run: as §1

H2122 = test: Cell proliferation assay (CellTiter-Glo); type: cell-based; details: Homo sapiens, NCI-H2122; NSCLC; 72 hours, 0.5% fetal bovine serum; read-out: antiproliferative activity IC50, H2122
How it was run: as §1

H358 = test: Cell proliferation assay (CellTiter-Glo); type: cell-based; details: Homo sapiens, NCI-H358; NSCLC; 72 hours, 0.5% fetal bovine serum; read-out: antiproliferative activity IC50, H358
How it was run: as §1

SW403 = test: Cell proliferation assay (CellTiter-Glo); type: cell-based; details: Homo sapiens, SW-403; Colon; 72 hours, 0.5% fetal bovine serum; read-out: antiproliferative activity IC50, SW403
How it was run: as §1

SW620 = test: Cell proliferation assay (CellTiter-Glo); type: cell-based; details: Homo sapiens, SW-620; Colon; 72 hours, 0.5% fetal bovine serum; read-out: antiproliferative activity IC50, SW620
How it was run: as §1

OPM-2 = test: Cell proliferation assay (CellTiter-Glo); type: cell-based; details: Homo sapiens, Multiple Myeloma, 72 hours, 0.5% fetal bovine serum, read-out: antiproliferative activity IC50, OPM-2
How it was run: as §1

SWI-116 = test: Cell proliferation assay (CellTiter-Glo); type: cell-based; details: Colon; 72 hours, 0.5% fetal bovine serum; read-out: antiproliferative activity IC50, SWI-116
How it was run: as §1

[1] = molecular target: T1, mTor serine/threonine protein kinase (Homo sapiens, UniProt P42345); test: mTor kinase radioisotope assay; type: biochemical; details: 70 uM ATP, 40 minutes; read-out: m-TOR IC50
T1 construct: FLAG; made in house; host or cells: Baculovirus expression system in Sf21 cells
How it was run: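 FLAG-tagged full-length recombinant human mTor from baculovirus/Sf21, incubated with p70S6K C-terminal fragment (2 mg/ml) and 70 uM ATP plus 33P-ATP tracer in 50 mM HEPES pH 7.5, 3 mM MnCl2, 40 min at room temperature. Phosphoric acid stop, filtermat capture, scintillation counting; IC50 from sigmoidal dose-response fit.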

PI3Kβ (p110β/p85α) = molecular target: T2, PI3Kβ (p110β/p85α) (Homo sapiens, UniProt P42338); test: PI3Kβ ADP-Glo assay; type: biochemical; details: 20 μM PIP2, 10 μM ATP, 90 minutes
T2 construct: His (N); made in house; host or cells: Baculovirus-infected Sf9 cells
T2 sequence (P42338 whole entry): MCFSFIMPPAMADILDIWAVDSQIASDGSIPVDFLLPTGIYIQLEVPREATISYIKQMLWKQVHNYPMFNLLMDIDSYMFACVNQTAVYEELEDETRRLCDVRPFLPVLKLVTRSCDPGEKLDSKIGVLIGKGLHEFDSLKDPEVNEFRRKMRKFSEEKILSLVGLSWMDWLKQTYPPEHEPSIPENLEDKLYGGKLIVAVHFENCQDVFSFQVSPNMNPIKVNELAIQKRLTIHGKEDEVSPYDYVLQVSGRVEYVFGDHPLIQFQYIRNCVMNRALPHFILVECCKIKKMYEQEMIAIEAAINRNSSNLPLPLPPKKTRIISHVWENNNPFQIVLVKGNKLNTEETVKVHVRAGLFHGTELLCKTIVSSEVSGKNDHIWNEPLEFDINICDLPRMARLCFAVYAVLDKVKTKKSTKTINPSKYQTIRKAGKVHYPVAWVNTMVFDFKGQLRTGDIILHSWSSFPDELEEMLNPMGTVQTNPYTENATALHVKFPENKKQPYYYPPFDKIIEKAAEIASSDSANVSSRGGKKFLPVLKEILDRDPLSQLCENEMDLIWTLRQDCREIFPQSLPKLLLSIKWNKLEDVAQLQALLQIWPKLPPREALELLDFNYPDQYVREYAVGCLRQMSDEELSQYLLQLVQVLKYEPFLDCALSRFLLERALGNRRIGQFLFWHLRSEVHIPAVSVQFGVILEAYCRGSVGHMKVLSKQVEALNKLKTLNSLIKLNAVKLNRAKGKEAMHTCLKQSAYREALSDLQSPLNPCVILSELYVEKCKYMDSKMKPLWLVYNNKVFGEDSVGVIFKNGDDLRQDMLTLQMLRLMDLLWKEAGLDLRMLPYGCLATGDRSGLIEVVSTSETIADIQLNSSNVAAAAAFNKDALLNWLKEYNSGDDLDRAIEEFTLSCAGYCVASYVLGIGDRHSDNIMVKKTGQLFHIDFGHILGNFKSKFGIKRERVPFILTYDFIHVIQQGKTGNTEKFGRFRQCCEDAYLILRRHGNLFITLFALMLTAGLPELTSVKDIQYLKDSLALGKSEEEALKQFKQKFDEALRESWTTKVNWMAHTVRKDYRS
T2 sequence (P27986 whole entry partner): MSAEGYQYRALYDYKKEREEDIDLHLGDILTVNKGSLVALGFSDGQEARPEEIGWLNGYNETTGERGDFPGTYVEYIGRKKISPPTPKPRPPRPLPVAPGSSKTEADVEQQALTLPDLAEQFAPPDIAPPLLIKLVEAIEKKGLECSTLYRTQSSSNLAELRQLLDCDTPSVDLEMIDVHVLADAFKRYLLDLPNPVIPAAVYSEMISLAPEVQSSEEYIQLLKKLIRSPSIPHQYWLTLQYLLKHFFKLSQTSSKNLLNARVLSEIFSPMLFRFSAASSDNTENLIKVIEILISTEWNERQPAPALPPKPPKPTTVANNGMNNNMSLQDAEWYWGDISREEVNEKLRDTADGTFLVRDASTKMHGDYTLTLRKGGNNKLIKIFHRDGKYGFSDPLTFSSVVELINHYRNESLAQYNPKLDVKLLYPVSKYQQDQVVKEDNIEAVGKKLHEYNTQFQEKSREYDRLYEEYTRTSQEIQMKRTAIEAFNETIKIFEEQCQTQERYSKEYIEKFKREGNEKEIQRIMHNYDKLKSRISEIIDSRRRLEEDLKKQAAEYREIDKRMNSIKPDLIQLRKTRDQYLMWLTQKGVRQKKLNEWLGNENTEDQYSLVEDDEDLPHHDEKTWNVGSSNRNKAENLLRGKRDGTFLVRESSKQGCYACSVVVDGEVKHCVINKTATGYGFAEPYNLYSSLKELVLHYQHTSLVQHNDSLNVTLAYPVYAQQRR
Description: (B) an In Vitro Assay which Determines the Ability of a Test Compound to Inhibit PI3Kβ.
Activity of PI3Kβ was measured using ADP-Glo assay from Promega. […], a complex of N-terminal His-tagged recombinant full-length human p110β (GenBank, Accession No. NM_006219) and untagged recombinant full length human p85α (GenBank Accession No. XM—043865) were co-expressed in a Baculovirus infected Sf9 cell expression system. The ADP-Glo assay was performed to measure the amount of ADP generated from ATP hydrolysis coupled with PIP2 phosphorylation by the purified recombinant PI3Kβ (p110β/p85α). PI3Kβ was incubated with 20 μM PIP2 substrate in the reaction buffer (10 mM Tris-HCl, pH 7.5, 50 mM NaCl, 5 mM MgCl2, 10 μM ATP and 0.5% DMSO) for 90 minutes at room temperature. The ADP generated was then detected by ADP-Glo assay from Promega, a luminescent ADP detection assay. The ADP-Glo assay is performed in two steps; first, after the kinase reaction, ADP-Glo Reagent is added to terminate the kinase reaction and deplete the remaining ATP. Second, the Kinase Detection Reagent is added to simultaneously convert ADP to ATP and allow the newly synthesized ATP to be measured using a luciferase/luciferin reaction.

CN(Cc1cc2nc(-c3ccc(N)cc3)nc(N3CCOCC3)c2s1)c1ncc(C(=O)NO)cn1 [Compound 150, 2-(((2-(4-aminophenyl)-4-morpholinothieno[3,2-d]pyrimidin-6-yl)methyl)(methyl)amino)-N-hydroxypyrimidine-5-carboxamide]
IC50 (CaPan1): 100 to 1000 nM
IC50 (A549): < 10 nM
IC50 (T-84): 10 to 100 nM
IC50 (H292): < 10 nM
IC50 (H2122): < 10 nM
IC50 (H358): < 10 nM
IC50 (SW403): < 10 nM
IC50 (SW620): < 10 nM
IC50 (OPM-2): < 10 nM
IC50 (SWI-116): < 10 nM
IC50 [1]: < 100 nM

CNc1ccc(-c2nc(N3CCOCC3)c3sc(CN(C)c4ncc(C(=O)NO)cn4)cc3n2)cn1 [Compound 111, N-Hydroxy-2-(methyl((2-(6-(methylamino)pyridin-3-yl)-4-morpholinothieno[3,2-d]pyrimidin-6-yl)methyl)amino)pyrimidine-5-carboxamide]
IC50 (A549): 10 to 100 nM
IC50 (T-84): 10 to 100 nM
IC50 (H292): < 10 nM
IC50 (H2122): < 10 nM
IC50 (H358): < 10 nM
IC50 (SW403): < 10 nM
IC50 (SW620): < 10 nM
IC50 (OPM-2): < 10 nM
IC50 (SWI-116): < 10 nM
IC50 (PI3Kβ (p110β/p85α)): 100 to 1000 nM
IC50 [1]: < 100 nM

CN(Cc1cc2nc(-c3cccc4[nH]ncc34)nc(N3CCOCC3)c2s1)c1ncc(C(=O)NO)cn1 [Compound 54, 2-(((2-(1H-indazol-4-yl)-4-morpholinothieno[3,2-d]pyrimidin-6-yl)methyl)(methyl)amino)-N-hydroxypyrimidine-5-carboxamide]
IC50 (CaPan1): 10 to 100 nM
IC50 (PI3Kβ (p110β/p85α)): < 100 nM

Source: patent US20130102595A1 (Curis, Inc., priority 2011, published 2013)
